# According to US10532065B2, “Bisphosphonic acid derivative and application for same” (NAGASAKI UNIVERSITY, priority 2014, dated 2020):
# “Also recorded” adds a separate entry of the source.
# Columns and labels:
# [1] = test system: γδ T cells in peripheral blood mononuclear cells of a healthy adult; conditions: healthy adult PBMC, 1 μM, IL-2, 14 days of culture
# Description: Mononuclear cells were obtained by the specific gravity centrifugation method from the peripheral blood of a healthy adult. The obtained mononuclear cells were suspended in Yssel medium at 1.8×10^6 cells/ml, and seeded by 1.5 ml in each well of a 24-well plate. Compound 7 was added to each well at a concentration of 1 μM, and cultured at 37° C. under 5% CO2 atmosphere. After one day of culture, IL-2 was added at a concentration of 100 IU/ml, and the cells were cultured in the presence of 100 IU/ml IL-2 thereafter up to day 6, and cultured in the presence of 30 IU/ml IL-2 from day 7. After 14 days of culture, the cells were recovered, and cell surface molecule was analyzed by flow cytometry using labeled anti-CD3 antibody and labeled anti-Vδ2 antibody. As a control, an antibody having the same isotype as anti-CD3 antibody and anti-Vδ2 antibody but irrelevant thereto was used. The ratio (%) of γδ T cells having the Vδ2 region in CD3 cells was determined.
# [2] = test system: γδ T cells in peripheral blood mononuclear cells of breast cancer patients; conditions: breast cancer patient PBMC, IL-2, 17 days of culture
# Description: The obtained mononuclear cells were suspended in Yssel medium at 1.8×10^6 cells/ml, and seeded by 1.5 ml in each well of a 24-well plate. Compound 7 was added to each well at a concentration of 1 μM, and cultured at 37° C. under 5% CO2 atmosphere. After one day of culture, IL-2 was added at a concentration of 100 IU/ml, and the cells were cultured in the presence of 100 IU/ml IL-2 thereafter up to day 6, and cultured in the presence of 30 IU/ml IL-2 from day 7. After 14 days of culture, the cells were recovered, and cell surface molecule was analyzed by flow cytometry using labeled anti-CD3 antibody and labeled anti-Vδ2 antibody. As a control, an antibody having the same isotype as anti-CD3 antibody and anti-Vδ2 antibody but irrelevant thereto was used. The ratio (%) of γδ T cells having the Vδ2 region in CD3 cells was determined.
# In the same manner as in Experimental Example 21 except that mononuclear cells obtained from the peripheral blood of breast cancer patients were used, compound 7 was added, and the cells were cultured at 37° C. under 5% CO2 atmosphere. […] After 17 days of culture, the cells were recovered, and cell surface molecule was analyzed by flow cytometry in the same manner as in Experimental Example 21. Also, the ratio (%) of γδ T cells having the Vδ2 region in CD3 cells was determined.
# [3] = test system: various tumor cell lines / γδ T cells; experiment: TNF-α production induction ability in various tumor cell lines (FIG. 7, 8); assay type: cell-based; conditions: various tumor cell lines pretreated, γδ T cells (FIG. 7, 8)
# Description: From the results of the above-mentioned Experimental Example, of the bisphosphonic acid POM ester derivatives, since the activity of compound 7 was high, the TNF-α production induction ability of this compound was studied using tumor cells other than EJ-1. In this case, to study effectiveness of POM esterification, using compound 14, which is the corresponding bisphosphonic acid, as a control to be the comparison target. […] Thereto was added a solution (500 μl) of compound 7 obtained by serially diluting 10 mM stock solution 10-fold from 20 μM, or a solution (500 μl) of compound 14 obtained by serially diluting 10 mM stock solution 10-fold from 200 μM, and the cells were suspended well. These conical tubes were stood at 37° C. for 4 hr, and the cells were washed 3 times with 5 ml of culture medium. To these cells was added 500 μl of medium, and the cells were suspended well. […] The content of TNF-α was calculated from the analytical curve of TNF-α. […]
# Therefore, TNF-α production induction ability of compound 7 was studied in more number of tumor cell lines. […] The content of TNF-α was calculated from the analytical curve of TNF-α.
# To quantitatively study the above-mentioned TNF-α production induction ability, various tumor cell lines were treated with compound 7, reacted with γδ T cells, the produced TNF-α amount was measured, and TNF-α50 value thereof was calculated. […]
structure (smiles),measurement,setting,value
"CC(C)(C)C(=O)OCOP(=O)(OCOC(=O)C(C)(C)C)C(CNc1nccs1)P(=O)(OCOC(=O)C(C)(C)C)OCOC(=O)C(C)(C)C [Compound 7, tetrakispivaloyloxymethyl 2-(thiazol-2-ylamino) ethylidene-1,1-bisphosphonate]",ratio (%) of γδ T cells having the Vδ2 region in CD3 cells,[1],99.8%
same,ratio (%) of γδ T cells having the Vδ2 region in CD3 cells (purity),[2],not less than 96%
same,TNF-α production induction ability (in words),[3],TNF-α production induction ability becomes high by POM esterification in any tumor cells; also recorded: efficient induction of TNF-α production from γδ T cells in any cell line
